Here are results for four compounds from ChEMBL document CHEMBL2429793, “Potent cytotoxic flavonoids from Iranian Securigera securidaca” (Med Chem Res, 2013).

Values after ≈ are worked out from the molar mass of the structure shown.

The subject of one experiment is T47D. As to the kind of experiment: Cytotoxicity against human T47D cells after 48 hrs by MTT assay. In kind it is functional, cell-based. (In general: Formazan colour is commonly taken as a measure of viable cells.)
Another experiment has as its system NIH3T3. As to the kind of experiment: Cytotoxicity against mouse NIH/3T3 cells after 96 hrs by MTT assay. To be noted: NIH3T3, 96 h. The experiment is classed as cell-based.
In a further experiment the test system is Caco-2. The experiment can be described thus: Cytotoxicity against human Caco2 cells after 48 hrs by MTT assay. The experiment is classed as functional, cell-based. The following applies: Caco-2, 48 h.
A further experiment deals with HCT-116. The experiment can be described thus: Cytotoxicity against human HCT116 cells. The experiment is classed as functional, cell-based.
A further experiment relates to Bel-7402. The experiment can be described thus: Cytotoxicity against human Bel7402 cells. The experiment is classed as functional, cell-based.
The next experiment relates to HT-29. As to the kind of experiment: Cytotoxicity against human HT-29 cells after 48 hrs by MTT assay. The experiment is classed as functional, cell-based. The following applies: HT-29, 48 h.

By IC50 is commonly meant the midpoint of a concentration-inhibition curve. High values mean lower potency, low ones higher potency.

In the case of `COc1cc(-c2oc3cc(O)cc(O)c3c(=O)c2O[C@@H]2O[C@H](CO)[C@@H](O)[C@H](O)[C@H]2O[C@@H]2O[C@@H](C)[C@H](O)[C@@H](O)[C@H]2O)ccc1O`, the IC50 was 0.003 µg/mL (≈ 0.0048 µM) in the experiment on T47D; greater than 200 µg/mL in the experiment with NIH3T3; 2.47 µg/mL (≈ 3.95 µM) with Caco-2; 72 µM in the experiment on HCT-116; 74.4 µM in the experiment with Bel-7402.
Turning to `O=c1c(-c2ccc(O[C@@H]3O[C@H](CO)[C@@H](O)[C@H](O)[C@H]3O)c(O)c2)coc2cc(O)cc(O)c12`, the IC50 in the experiment on T47D is 0.169 µg/mL (≈ 0.377 µM); in the experiment with NIH3T3, greater than 200 µg/mL; with Caco-2 it was 0.006 µg/mL (≈ 0.0134 µM); in the experiment with HT-29 it was 0.009 µg/mL (≈ 0.0201 µM).
Regarding `O=C(/C=C/c1ccc(O)cc1)c1c(O)cc(O)cc1O[C@@H]1O[C@H](CO)[C@@H](O)[C@H](O)[C@H]1O`, the IC50 in the experiment with T47D was greater than 200 µg/mL; with NIH3T3 it was greater than 200 µg/mL; in the experiment on Caco-2, 8.45 µg/mL (≈ 19.5 µM).
Consider `CN(Cc1cnc2nc(N)nc(N)c2n1)c1ccc(C(=O)N[C@@H](CCC(=O)O)C(=O)O)cc1` [METHOTREXATE], for which the IC50 with NIH3T3 turned out to be 0.24 µg/mL (≈ 0.528 µM).
